Key:
[1] = LogD7.4 measurement, shake flask method; assay type: physicochemical; conditions: n-octanol/DPBS pH 7.4, n = 3
Description: The logD7.4 values of all the ^177Lu-labeled GRPR-targeted ligands were measured using the shake flask method as previously reported. An aliquot (~2 MBq) of the radiolabeled product was added to a mixture of n-octanol (3 mL) and DPBS (3 mL, pH 7.4), followed by 1 min vortexing and 15 min centrifugation at 5000 rpm. Samples of the n-octanol (1 mL) and buffer (1 mL) layers were collected, and the activity was counted using a gamma counter. The logD7.4 values were calculated using the following equation: logD7.4=log10[countsn−octanolphase/countsbutterphase]

PC-3 tumor-bearing mice = experiment: Ex vivo biodistribution in PC-3 tumor-bearing mice
Description: (§1) SPECT/CT imaging experiments were performed using an MILabs (Houten, The Netherlands) U-SPECT-II/CT scanner with a custom-made ultra-high-sensitivity big mouse collimator (2 mm pinhole size) following previously reported procedures. […] Male NOD.Cg-Rag1^tm1Mom Il2rg^tm1Wjl/SzJ (NRG) mice were used in these experiments because of their immunodeficient characteristics and excellent radiation tolerance. Mice were anaesthetized and subcutaneously implanted with 5 × 10^6 PC-3 prostate cancer cells (100 µL; 1:1 PBS/Matrigel) behind the left shoulder. SPECT/CT imaging and biodistribution studies were performed once the tumors reached a diameter of 5–8 mm, typically after approximately 4 weeks of growth.
(§2) For ex vivo biodistribution studies, the mice were injected with ~2–6 MBq of the radioligand. […] Blocking study was conducted at 1 h post-injection via co-injection of the radioligand with 100 μg of [D-Phe^6,Leu-NHEt^13,des-Met^14]Bombesin(6–14). Organs/tissues of interested were collected, weighed, and measured using an automatic gamma counter.

[2] = Ex vivo biodistribution in PC-3 tumor-bearing mice; conditions: mouse; for tissue to tissue ratio at 1 h / tissue to tissue ratio at 4 h / tissue to tissue ratio at 24 h / tissue to tissue ratio at 72 h / tissue to tissue ratio at 120 h: male, NOD.Cg-Rag1^tm1Mom Il2rg^tm1Wjl/SzJ (NRG), total radioactivity; for tissue to tissue ratio at 120 h: 120 h post-injection
Description: as §1, §2

[3] = 1 h blocked (co-injected with 100 µg [D-Phe6,Leu-NHEt13,des-Met14]Bombesin(6-14))
[4] = 1 h post-injection, 100 µg [D-Phe6,Leu-NHEt13,des-Met14]Bombesin(6–14)

Question: For `CC(C)C[C@H](NC(=O)[C@H](Cc1cnc[nH]1)N(C)C(=O)CNC(=O)[C@@H](NC(=O)[C@H](C)NC(=O)[C@H](Cc1c[nH]c2ccccc12)NC(=O)[C@H](CCC(N)=O)NC(=O)[C@@H](Cc1ccccc1)NC(=O)CN1CCC(NC(=O)CN2CCN(CC(=O)O)CCN(CC(=O)O)CCN(CC(=O)O)CC2)CC1)C(C)(C)C)C(=O)N1CSC[C@H]1C(N)=O` [[^177Lu]Lu-LW01110, metal not drawn], which logD [1] is on record?
Answer: The logD was -2.76 ± 0.1.

Question: And the Uptake in lungs (PC-3 tumor-bearing mice; [3])?
Answer: Its Uptake in lungs is 0.52 ± 0.08 %ID/g.

Question: What about the Uptake in muscle (PC-3 tumor-bearing mice; [3]) of the same compound?
Answer: The Uptake in muscle was 0.14 ± 0.03 %ID/g.

Question: What about the Tumor/blood uptake ratio (PC-3 tumor-bearing mice; 1 h post-injection) of the same compound?
Answer: Its Tumor/blood uptake ratio is 15.9 ± 1.15.

Question: And the “Uptake in adrenal glands” value (PC-3 tumor-bearing mice; 1 h post-injection)?
Answer: The value was 1.22 ± 0.38 %ID/g.

Question: What about the Uptake in blood (PC-3 tumor-bearing mice; 1 h post-injection) of the same compound?
Answer: Its Uptake in blood is 0.69 ± 0.06 %ID/g.

Question: What about the Uptake in bone (PC-3 tumor-bearing mice; 1 h post-injection) of the same compound?
Answer: Its Uptake in bone is 0.14 ± 0.05 %ID/g.

Question: What about the Uptake in brain (PC-3 tumor-bearing mice; 1 h post-injection) of the same compound?
Answer: Its Uptake in brain is 0.03 ± 0.00 %ID/g.

Question: What about the Uptake in liver (PC-3 tumor-bearing mice; 1 h post-injection) of the same compound?
Answer: The Uptake in liver was 0.40 ± 0.05 %ID/g.

Question: What about the Uptake in lungs (PC-3 tumor-bearing mice; 1 h post-injection) of the same compound?
Answer: Its Uptake in lungs is 0.69 ± 0.12 %ID/g.

Question: What about the Uptake in testes (PC-3 tumor-bearing mice; 1 h post-injection) of the same compound?
Answer: The Uptake in testes was 0.23 ± 0.04 %ID/g.

Question: What about the “reduction of average pancreas uptake by co-injection of blocker” value (PC-3 tumor-bearing mice; [4]) of the same compound?
Answer: The value was 76%.

Question: What about the “reduction of average tumor uptake by co-injection of blocker” value (PC-3 tumor-bearing mice; [4]) of the same compound?
Answer: Its value is 73%.

Question: And the “Uptake in adrenal glands” value (PC-3 tumor-bearing mice; 4 h post-injection)?
Answer: The value was 1.02 ± 0.33 %ID/g.

Question: What about the Uptake in brain (PC-3 tumor-bearing mice; 4 h post-injection) of the same compound?
Answer: Its Uptake in brain is 0.03 ± 0.02 %ID/g.

Question: What about the Uptake in heart (PC-3 tumor-bearing mice; 4 h post-injection) of the same compound?
Answer: Its Uptake in heart is 0.06 ± 0.06 %ID/g.

Question: And the Uptake in liver (PC-3 tumor-bearing mice; 4 h post-injection)?
Answer: Its Uptake in liver is 0.23 ± 0.07 %ID/g.

Question: What about the Uptake in lungs (PC-3 tumor-bearing mice; 4 h post-injection) of the same compound?
Answer: The Uptake in lungs was 0.23 ± 0.11 %ID/g.

Question: What about the Uptake in muscle (PC-3 tumor-bearing mice; 4 h post-injection) of the same compound?
Answer: Its Uptake in muscle is 0.03 ± 0.01 %ID/g.

Question: What about the Uptake in testes (PC-3 tumor-bearing mice; 4 h post-injection) of the same compound?
Answer: The Uptake in testes was 0.06 ± 0.05 %ID/g.

Question: And the Uptake in heart (PC-3 tumor-bearing mice; 24 h post-injection)?
Answer: Its Uptake in heart is 0.03 ± 0.00 %ID/g.

Question: What about the Uptake in spleen (PC-3 tumor-bearing mice; 24 h post-injection) of the same compound?
Answer: Its Uptake in spleen is 0.12 ± 0.02 %ID/g.

Question: And the “Uptake in adrenal glands” value (PC-3 tumor-bearing mice; 72 h post-injection)?
Answer: Its value is 0.41 ± 0.06 %ID/g.

Question: And the Uptake in kidneys (PC-3 tumor-bearing mice; 72 h post-injection)?
Answer: Its Uptake in kidneys is 0.52 ± 0.10 %ID/g.

Question: What about the “Uptake in large intestine” value (PC-3 tumor-bearing mice; 72 h post-injection) of the same compound?
Answer: The value was 0.23 ± 0.04 %ID/g.

Question: And the Uptake in lungs (PC-3 tumor-bearing mice; 72 h post-injection)?
Answer: The Uptake in lungs was 0.06 ± 0.03 %ID/g.

Question: What about the Uptake in pancreas (PC-3 tumor-bearing mice; 72 h post-injection) of the same compound?
Answer: The Uptake in pancreas was 1.03 ± 0.30 %ID/g.

Question: And the “Uptake in small intestine” value (PC-3 tumor-bearing mice; 72 h post-injection)?
Answer: The value was 0.09 ± 0.03 %ID/g.

Question: And the “Uptake in large intestine” value (PC-3 tumor-bearing mice; 120 h post-injection)?
Answer: The value was 0.09 ± 0.02 %ID/g.

Question: What about the Uptake in lungs (PC-3 tumor-bearing mice; 120 h post-injection) of the same compound?
Answer: The Uptake in lungs was 0.03 ± 0.03 %ID/g.

Question: And the “Uptake in small intestine” value (PC-3 tumor-bearing mice; 120 h post-injection)?
Answer: Its value is 0.03 ± 0.00 %ID/g.

Question: And the “Uptake in large intestine” value (PC-3 tumor-bearing mice; mouse, in vivo, 100 ug, 1 h)?
Answer: Its value is 0.29 ± 0.08 %ID/g.

Question: And the “uptake in PC-3 tumor xenografts cleared within 24 h” value (PC-3 tumor-bearing mice; relative to 1 h uptake)?
Answer: The value was 37%.

Question: What about the tissue to tissue ratio at 1 h ([2]; tumor/blood, Tumor/blood uptake ratio, 1 h blocked (co-injected with 100 µg [D-Phe6,Leu-NHEt13,des-Met14]Bombesin(6-14))) of the same compound?
Answer: The tissue to tissue ratio at 1 h was 5.32 ± 0.87.

Question: And the tissue to tissue ratio at 1 h ([2]; tumor/blood, Tumor/blood uptake ratio, 1 h post-injection)?
Answer: The tissue to tissue ratio at 1 h was 15.9 ± 1.55.

Question: What about the tissue to tissue ratio at 4 h ([2]; tumor/blood, Tumor/blood uptake ratio, 4 h post-injection) of the same compound?
Answer: The tissue to tissue ratio at 4 h was 234 ± 53.9.

Question: What about the tissue to tissue ratio at 24 h ([2]; tumor/blood, Tumor/blood uptake ratio, 24 h post-injection) of the same compound?
Answer: Its tissue to tissue ratio at 24 h is 1220 ± 229.

Question: And the tissue to tissue ratio at 72 h ([2]; tumor/blood, Tumor/blood uptake ratio, 72 h post-injection)?
Answer: The tissue to tissue ratio at 72 h was 1330 ± 177.

Question: What about the tissue to tissue ratio at 120 h ([2]; tumor/blood, Tumor/blood uptake ratio) of the same compound?
Answer: The tissue to tissue ratio at 120 h was 1310 ± 412.

Question: What about the tissue to tissue ratio at 1 h ([2]; tumor/kidney, Tumor/kidney uptake ratio, 1 h blocked (co-injected with 100 µg [D-Phe6,Leu-NHEt13,des-Met14]Bombesin(6-14))) of the same compound?
Answer: The tissue to tissue ratio at 1 h was 0.85 ± 0.1.

Question: What about the tissue to tissue ratio at 1 h ([2]; tumor/kidney, Tumor/kidney uptake ratio, 1 h post-injection) of the same compound?
Answer: Its tissue to tissue ratio at 1 h is 2.96 ± 0.43.

Question: And the tissue to tissue ratio at 4 h ([2]; tumor/kidney, Tumor/kidney uptake ratio, 4 h post-injection)?
Answer: Its tissue to tissue ratio at 4 h is 3.27 ± 0.89.

Question: What about the tissue to tissue ratio at 24 h ([2]; tumor/kidney, Tumor/kidney uptake ratio, 24 h post-injection) of the same compound?
Answer: The tissue to tissue ratio at 24 h was 4.86 ± 0.64.

Question: And the tissue to tissue ratio at 72 h ([2]; tumor/kidney, Tumor/kidney uptake ratio, 72 h post-injection)?
Answer: Its tissue to tissue ratio at 72 h is 8.92 ± 1.62.

Question: What about the tissue to tissue ratio at 120 h ([2]; tumor/kidney, Tumor/kidney uptake ratio) of the same compound?
Answer: The tissue to tissue ratio at 120 h was 11.3 ± 1.27.

Question: And the tissue to tissue ratio at 1 h ([2]; tumor/muscle, Tumor/muscle uptake ratio, 1 h blocked (co-injected with 100 µg [D-Phe6,Leu-NHEt13,des-Met14]Bombesin(6-14)))?
Answer: The tissue to tissue ratio at 1 h was 21.5 ± 3.27.

Question: What about the tissue to tissue ratio at 1 h ([2]; tumor/muscle, Tumor/muscle uptake ratio, 1 h post-injection) of the same compound?
Answer: Its tissue to tissue ratio at 1 h is 76.2 ± 10.1.

Question: And the tissue to tissue ratio at 4 h ([2]; tumor/muscle, Tumor/muscle uptake ratio, 4 h post-injection)?
Answer: Its tissue to tissue ratio at 4 h is 392 ± 101.

Question: And the tissue to tissue ratio at 24 h ([2]; tumor/muscle, Tumor/muscle uptake ratio, 24 h post-injection)?
Answer: Its tissue to tissue ratio at 24 h is 651 ± 95.

Question: What about the tissue to tissue ratio at 72 h ([2]; tumor/muscle, Tumor/muscle uptake ratio, 72 h post-injection) of the same compound?
Answer: The tissue to tissue ratio at 72 h was 647 ± 311.

Question: And the tissue to tissue ratio at 120 h ([2]; tumor/muscle, Tumor/muscle uptake ratio)?
Answer: Its tissue to tissue ratio at 120 h is 776 ± 314.

Question: And the tissue to tissue ratio at 1 h ([2]; tumor/pancreas, Tumor/pancreas uptake ratio, 1 h blocked (co-injected with 100 µg [D-Phe6,Leu-NHEt13,des-Met14]Bombesin(6-14)))?
Answer: Its tissue to tissue ratio at 1 h is 1.17 ± 0.31.

Question: What about the tissue to tissue ratio at 1 h ([2]; tumor/pancreas, Tumor/pancreas uptake ratio, 1 h post-injection) of the same compound?
Answer: The tissue to tissue ratio at 1 h was 0.99 ± 0.11.

Question: And the tissue to tissue ratio at 4 h ([2]; tumor/pancreas, Tumor/pancreas uptake ratio, 4 h post-injection)?
Answer: Its tissue to tissue ratio at 4 h is 1.87 ± 0.37.

Question: And the tissue to tissue ratio at 24 h ([2]; tumor/pancreas, Tumor/pancreas uptake ratio, 24 h post-injection)?
Answer: Its tissue to tissue ratio at 24 h is 2.22 ± 0.25.

Question: What about the tissue to tissue ratio at 72 h ([2]; tumor/pancreas, Tumor/pancreas uptake ratio, 72 h post-injection) of the same compound?
Answer: Its tissue to tissue ratio at 72 h is 4.58 ± 0.68.

Question: What about the tissue to tissue ratio at 120 h ([2]; tumor/pancreas, Tumor/pancreas uptake ratio) of the same compound?
Answer: The tissue to tissue ratio at 120 h was 6.6 ± 1.14.

Question: What about the tissue uptake at 1 h ([2]; PC-3 tumor, 100 ug, Uptake in PC-3 tumor, 1 h blocked (co-injected with 100 µg [D-Phe6,Leu-NHEt13,des-Met14]Bombesin(6-14))) of the same compound?
Answer: The tissue uptake at 1 h was 2.99 ± 0.42 %ID/g.

Question: And the tissue uptake at 1 h ([2]; PC-3 tumor, Uptake in PC-3 tumor, 1 h post-injection)?
Answer: The tissue uptake at 1 h was 11 ± 1.03 %ID/g.

Question: What about the tissue uptake at 4 h ([2]; PC-3 tumor, Uptake in PC-3 tumor, 4 h post-injection) of the same compound?
Answer: The tissue uptake at 4 h was 10.1 ± 1.4 %ID/g.

Question: What about the tissue uptake at 24 h ([2]; PC-3 tumor, Uptake in PC-3 tumor, 24 h post-injection) of the same compound?
Answer: The tissue uptake at 24 h was 6.9 ± 1.34 %ID/g.

Question: And the tissue uptake at 72 h ([2]; PC-3 tumor, Uptake in PC-3 tumor, 72 h post-injection)?
Answer: Its tissue uptake at 72 h is 4.72 ± 1.42 %ID/g.
